Laboratory results from ChEMBL document CHEMBL4177564, “Pyrrolo[2,1-f][1,2,4]triazines: From C-nucleosides to kinases and back again, the remarkable journey of a versatile nitrogen heterocycle” (Bioorg Med Chem Lett, 2017).

Key:
[1] = target: Potassium voltage-gated channel subfamily A member 5 (Homo sapiens) (UniProt P22460); assay: Inhibition of human Kv1.5 expressed in mouse L929 cells assessed as reduction in channel current at 0.3 uM by patch clamp method relative to control; assay type: cell-based
Potassium voltage-gated channel subfamily A member 5 (Homo sapiens), sequence (P22460 whole entry, the tested form may be a part): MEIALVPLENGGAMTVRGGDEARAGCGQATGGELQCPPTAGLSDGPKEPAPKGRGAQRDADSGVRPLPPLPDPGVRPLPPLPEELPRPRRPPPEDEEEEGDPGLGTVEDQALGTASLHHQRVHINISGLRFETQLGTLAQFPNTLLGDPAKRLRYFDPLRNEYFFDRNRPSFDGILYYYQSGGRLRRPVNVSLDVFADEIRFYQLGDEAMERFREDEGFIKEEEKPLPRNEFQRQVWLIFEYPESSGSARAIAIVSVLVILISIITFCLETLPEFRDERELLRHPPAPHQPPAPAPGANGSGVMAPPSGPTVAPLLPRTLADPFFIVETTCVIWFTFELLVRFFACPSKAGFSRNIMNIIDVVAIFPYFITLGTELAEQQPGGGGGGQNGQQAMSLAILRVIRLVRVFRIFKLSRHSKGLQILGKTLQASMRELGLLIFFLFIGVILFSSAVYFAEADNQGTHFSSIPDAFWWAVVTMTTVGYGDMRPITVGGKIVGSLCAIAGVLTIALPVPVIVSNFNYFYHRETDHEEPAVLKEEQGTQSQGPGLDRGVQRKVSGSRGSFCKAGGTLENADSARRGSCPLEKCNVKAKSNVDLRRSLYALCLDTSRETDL

[2] = target: Ubiquitin carboxyl-terminal hydrolase 7 (Homo sapiens, UniProt Q93009); assay: Inhibition of His6-tagged USP7 (208 to 1102 residues) (unknown origin) using ubiquitin-rhodamine110 as substrate preincubated for 30 mins followed by substrate addition measured after 20 mins by fluorescence assay
Ubiquitin carboxyl-terminal hydrolase 7, sequence (Q93009 whole entry, the tested form may be a part): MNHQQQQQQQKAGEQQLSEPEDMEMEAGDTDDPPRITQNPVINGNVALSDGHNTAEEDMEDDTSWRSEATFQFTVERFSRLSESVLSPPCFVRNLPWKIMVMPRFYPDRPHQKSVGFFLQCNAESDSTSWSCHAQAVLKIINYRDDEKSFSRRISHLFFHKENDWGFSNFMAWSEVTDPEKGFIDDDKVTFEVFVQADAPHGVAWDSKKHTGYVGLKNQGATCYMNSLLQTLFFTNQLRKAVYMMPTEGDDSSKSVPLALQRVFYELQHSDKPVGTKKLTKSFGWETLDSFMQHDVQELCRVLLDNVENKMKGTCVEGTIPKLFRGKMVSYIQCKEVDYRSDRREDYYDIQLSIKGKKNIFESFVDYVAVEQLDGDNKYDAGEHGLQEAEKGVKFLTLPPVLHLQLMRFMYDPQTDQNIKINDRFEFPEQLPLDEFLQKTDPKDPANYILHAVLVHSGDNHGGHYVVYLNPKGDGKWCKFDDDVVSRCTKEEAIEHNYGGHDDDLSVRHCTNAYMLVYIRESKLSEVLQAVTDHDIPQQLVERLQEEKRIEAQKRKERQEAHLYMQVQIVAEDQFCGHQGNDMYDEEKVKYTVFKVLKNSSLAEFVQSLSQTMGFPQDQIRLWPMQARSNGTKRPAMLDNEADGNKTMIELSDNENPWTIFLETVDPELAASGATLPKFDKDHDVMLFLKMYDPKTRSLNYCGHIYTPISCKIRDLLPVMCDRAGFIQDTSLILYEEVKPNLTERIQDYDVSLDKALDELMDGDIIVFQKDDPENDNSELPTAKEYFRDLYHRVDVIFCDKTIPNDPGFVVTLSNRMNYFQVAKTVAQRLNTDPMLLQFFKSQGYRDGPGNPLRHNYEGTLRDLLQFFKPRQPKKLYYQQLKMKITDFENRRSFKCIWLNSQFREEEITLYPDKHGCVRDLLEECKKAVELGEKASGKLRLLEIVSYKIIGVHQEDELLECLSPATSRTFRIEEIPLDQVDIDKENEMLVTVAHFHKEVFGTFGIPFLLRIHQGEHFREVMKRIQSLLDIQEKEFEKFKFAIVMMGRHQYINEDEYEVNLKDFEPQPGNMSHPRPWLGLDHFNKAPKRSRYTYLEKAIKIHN

`NS(=O)(=O)c1cncc(-c2nc(NCc3ccccc3)c3c(-c4ccccc4)ccn3n2)c1` was tested, and the inhibition [1] was over 95%.

For `C[C@H](CC(=O)N1CCC(O)(Cn2cnn3cccc3c2=O)CC1)c1ccccc1`, the IC50 [2] was under 200 nM.
